The subject of assay [1] is plasma from the hemophiliac patient (hemophiliac patient A). Kind of assay: Second ex vivo thrombin generation test (CAT analyzer, PPP Reagent LOW). The note with it: for Amount of thrombin at the maximum of the peak, normalized to the thrombin peak obtained with adapalene: 50 μM final in plasma (positive control: factor VIII 1 IU/mL), HEPES buffer, negative control 0.13 ± 0.02; for peak of generated thrombin compared to negative and positive control, in words: 50 μM final in plasma. The class given is biochemical, human. As for the experimental part: A second thrombin generation test is carried out, for the compounds H27, H31, H32, H35, H38, H39 and the compound H24.
The thrombin generation test was carried out at 37° C. using a CAT analyzer (Diagnostica Stago) with the PPP Reagent LOW reagent (Diagnostica Stago) in accordance with the manufacturer's instructions and according to the method established by Pr. Hemker in 2003. PPP Reagent LOW is a mixture of tissue factor (TF) 1 pM with phospholipid vesicles (PL, 4 μM). The test is triggered by the addition of a mixture of calcium+fluorescent substrate (ZGGR-AMC) (FluCa mixture).
From a technical point of view, 80 μL of surcharged plasma sample is added to 20 μL of «initiator complex» (PPP Reagent LOW) and incubated for 10 min at 37° C. Then, the reaction is triggered by adding 20 μL of FluCa (mixture of CaCl2 and ZGGR-AMC substrate) and the fluorescence signal is measured over time. Each test is performed in triplicate.
For each tested molecule, 247 μL of plasma from the hemophiliac patient were surcharged with 13 μL of a solution containing different amounts of compound (molecule to be tested, factor VIII or dilution buffer) to obtain the desired final concentration (systematic dilution of the molecule to be tested in the plasma at 1/20). For example, to obtain the final concentration of 50 μM in plasma, 13 μL of a 1 mM solution was added to 247 μL of plasma. In parallel with the tests on the different chemical compounds, the plasma of a hemophiliac patient is surcharged with the same buffer for diluting the compound, an 8% solution of dimethyl sulfoxide (DMSO), as a negative control (0.4% of final DMSO) in order to obtain the basal level of thrombin generation of the used plasma. The positive control is the same plasma surcharged with plasma factor VIII (Factane, LFB, France) at a concentration of 1 IU/mL (or 100% factor VIII) in order to obtain the expected «normal» level of thrombin generation used plasma.
For this example, solutions of adapalene and 1 mM compounds were prepared with the buffer (18 mM HEPES, 135 mM NaCl, pH 7.35) instead of water as in Example 1. This modification has made it possible to increase the amount of thrombin generated by the plasma of the hemophiliac patient A in the presence of 50 μM of adapalene.
Compounds were tested at a final concentration of 50 μM in plasma, and signal was measured over time. The obtained results, expressed as the amount of thrombin measured at the maximum of the peak obtained and normalized to the thrombin peak obtained with adapalene, are shown in Table 1 below: […]

Assay [2] has as its system plasma from a patient suffering from severe hemophilia A. Kind of assay: Ex vivo thrombin generation test (STA-Genesia, STG-Bleedscreen reagent). The format is biochemical, human. As for the experimental part:
The thrombin generation test consists of measuring the kinetics of appearance of this key coagulation factor in the plasma over time. After activation of coagulation by calcium, the amount of thrombin changes over time. It is measured using a synthetic thrombin substrate coupled to a fluorescent molecule (ZGGR-AMC). The main parameters determined are the latency time before observing an increase in thrombin generation, the thrombin peak corresponding to the maximum amount of thrombin generated and the ETP (endogenous thrombin potential) corresponding to the total amount of thrombin generated in plasma during the test. In the case of a patient with hemophilia A, the generation of thrombin is low or even almost zero for some patients. Adding the missing coagulation factor (factor VIII) to its physiological level (1 Ul/mL or 100%) restores coagulation in patients and recovers a «normal» thrombin generation. Thus, the thrombin generation test makes it possible to globally evaluate the coagulation rate of a given plasma and in the present case, it makes it possible to evaluate the capacity of a molecule to restore or not restore coagulation in a hemophiliac patient.
For this example, several ex vivo thrombin generation tests were carried out on plasma from a patient suffering from severe hemophilia A, therefore devoid of factor FVIII, in order to evaluate the effect on coagulation of a compound of general formula (I), more particularly adapalene, of formula (V) above, on the kinetics and the generated amount of thrombin.
Hemophiliac patient plasma was obtained from Cryopep company (Montpellier, France).
Adapalene is commercially available, in particular from Prestwick company. It was dissolved in an 8% dimethylsulfoxide (DMSO) solution then diluted to a concentration of 1 mM and then tested at the following concentrations: 50 μM, 5 μM, 0.5 μM (final concentrations in plasma).
The thrombin generation test was performed at 37° C. using a fully automated STA-Genesia analyzer (Diagnostica Stago) with STG®-Bleedscreen reagent (Diagnostica Stago) according to the manufacturer's instructions and according to the method established by Pr. Hemker in 2003. The STG®-Bleedscreen reagent is a mixture of tissue factor (TF) at low concentration with phospholipid vesicles (PL). The test is triggered by the addition of a mixture of calcium+fluorescent substrate (ZGGR-AMC) (STG®-FluoStart mixture).
From a technical point of view, 4 volumes of surcharged plasma sample are added to 1 volume of «initiator complex» (STG®-Bleedscreen) and incubated for 10 min at 37° C. Then, the reaction is triggered by adding 1 volume of STG®-FluoStart (mixture of CaCl2 and ZGGR-AMC substrate) and the fluorescence signal is measured over time. Each test is performed in duplicate
For each tested molecule, 475 μL of plasma from the hemophiliac patient were surcharged with 25 μL of a solution containing different amounts of compound (molecule to be tested, factor VIII or dilution buffer) to obtain the desired final concentration (systematic dilution of the molecule to be tested in the plasma at 1/20). For example, to obtain the final concentration of 50 μM in plasma, 25 μL of a 1 mM solution was added to 475 μL of plasma. The preparation of 500 μL of surcharged plasma allows to perform the 2 thrombin generation tests (duplicate), the 2 calibration tests (duplicate) and takes into account the dead volume of the automaton.
In parallel with the tests on the different chemical compounds, the plasma of a hemophiliac patient is surcharged with the same buffer for diluting the compound, an 8% solution of dimethylsulfoxide (DMSO), as a negative control (0.4% of final DMSO) in order to obtain the basal level of thrombin generation of the used plasma. The positive control is the same plasma surcharged with plasma factor VIII (Factane, LFB, France) at a concentration of 1 IU/mL (or 100% factor VIII) in order to obtain the expected «normal» level of used thrombin generation plasma. […]

Assay [3] deals with T1, FXa inhibition by TFPI-K1K2 (truncated human TFPI) (Homo sapiens, UniProt P10646, F53G).
T1 sequence (P10646 29-182 F53G): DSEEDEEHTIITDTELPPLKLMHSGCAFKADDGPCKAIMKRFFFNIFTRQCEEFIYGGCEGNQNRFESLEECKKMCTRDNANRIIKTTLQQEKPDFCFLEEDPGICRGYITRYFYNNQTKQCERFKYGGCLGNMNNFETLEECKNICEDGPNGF
The assay can be described thus: FXa activity assay: release of FXa inhibition by TFPI-K1K2 (colorimetric, PNAPEP-1025). The format is biochemical. Conditions: 50 μM, TFPI-K1K2 30 nM, FXa 0.5 nM. On the procedure:
The ability of adapalene to reverse FXa inhibition by TFPI was assessed by using a low TFPI concentration FXa activity assay. For this test, a truncated human TFPI (TFPI-K1K2) was used, which is common to both TFPI isoforms α and β, having the amino acid sequence SEQ ID No 1:
Adapalene was tested for its ability to release FXa inhibition by TFPI-K1K2 using a colorimetric assay in a 96-well plate format. All steps were performed at room temperature. FXa inhibition by increasing TFPI-K1K2 concentrations was first analyzed to determine the best detection conditions. […]
Briefly, 14.5 μL of 350 μM adapalene, prediluted in the buffer described above, was added to 62.5 μL 50 nM TFPI-K1K2 and mixed together by aspiration/dispensing. After 10 min of incubation at room temperature, 6.25 μL of 8 nM FXa was added, the mixture was mixed again, and the activity of uninhibited FXa was quantified by the addition of 18 μL of PNAPEP-1025 (Cryopep), an FXa substrate, diluted to 2 mM in H2O. […]
The plates were centrifuged to remove any bubbles and the optical density (OD) at 405 nm, corresponding to the hydrolysis of the PNAPEP-1025 substrate, was measured for 1 h at room temperature. The absorbance value at t0, corresponding to an absorbance of 0.05, was subtracted and the […] restoration value was reported as a percentage of the positive control.

The mark [4] stands for this setting: adapalene 0.5 μM final in severe hemophilia A plasma.
[5] abbreviates: adapalene 5 μM final in severe hemophilia A plasma.
Where [6] appears, read: adapalene 50 μM final in severe hemophilia A plasma.

With `COc1ccc(-c2ccc(C(=O)NCC(=O)O)cc2)cc1C12CC3CC(CC(C3)C1)C2` [Compound H24, 2-(3′-(adamantan-1-yl)-4′-methoxy-[1,1′-biphenyl]-4-ylcarboxamido)acetic acid], in assay [1], the “Amount of thrombin at the maximum of the peak, normalized to the thrombin peak obtained with adapalene” value was found to be 0.23.

In the case of `COc1ccc(N2CCc3cc(C(=O)O)ccc3C2)cc1C12CC3CC(CC(C3)C1)C2` [Compound H27, 2-(3-(adamantan-1-yl)-4-methoxyphenyl)-1,2,3,4-tetrahydroisoquinoline-6 carboxylic acid], the “Amount of thrombin at the maximum of the peak, normalized to the thrombin peak obtained with adapalene” value in assay [1] is listed as 0.51.

As to `COc1ccc(-c2ccc3nc(C(=O)O)ccc3c2)cc1C12CC3CC(CC(C3)C1)C2` [Compound H31, 6-(3-(adamantan-1-yl)-4-m2thoxyph2nyl)quinoline-2-carboxylic acid], in assay [1], the “Amount of thrombin at the maximum of the peak, normalized to the thrombin peak obtained with adapalene” value amounted to 0.62.

Turning to `COc1ccc(-c2ccc3cc(C(=O)O)cnc3c2)cc1C12CC3CC(CC(C3)C1)C2` [Compound H32, 7-(3-(adamantan-1-yl)-4-methoxyphenyl)quinoline-3-carboxylic acid], in assay [1], the “Amount of thrombin at the maximum of the peak, normalized to the thrombin peak obtained with adapalene” value was determined as 0.55.

Consider `C#CCOc1ccc(-c2ccc3cc(C(=O)O)ccc3c2)cc1C12CC3CC(CC(C3)C1)C2` [Compound H35, 6-(3-(adamantan-1-yl)-4-(prop-2-yn-1-yloxy)phenyl)-2-naphthoic acid], for which the “Amount of thrombin at the maximum of the peak, normalized to the thrombin peak obtained with adapalene” value in assay [1] stood at 0.53.

Turning to `COc1ccc(-c2ccc3cc(C(=O)O)cc(O)c3c2)cc1C12CC3CC(CC(C3)C1)C2` [Compound H38, 6-(3-(adamantan-1-yl)-4-methoxyphenyl)-4-hydroxy-2-naphthoic acid], in assay [1], the “peak of generated thrombin compared to negative and positive control, in words” value is listed as “much higher”; the “Amount of thrombin at the maximum of the peak, normalized to the thrombin peak obtained with adapalene” value was found to be 0.96.

As for `COc1ccc(-c2ccc3cc(CS(=O)(=O)O)ccc3c2)cc1C12CC3CC(CC(C3)C1)C2` [Compound H39, (6-(3-(adamantan-1-yl)-4-methoxyphenyl)naphthalen-2-yl)methanesulfonic acid], in assay [1], the “peak of generated thrombin compared to negative and positive control, in words” value is recorded as “much higher”; the “Amount of thrombin at the maximum of the peak, normalized to the thrombin peak obtained with adapalene” value amounted to 1.22.

For the compound `COc1ccc(-c2ccc3cc(C(=O)O)ccc3c2)cc1C12C[C@H]3C[C@@H](C1)C[C@@H](C2)C3` [adapalene, 6-[3-(1-adamantyl)-4-methoxyphenyl]naphthalene-2-carboxylic acid], the “generation of thrombin (peak and ETP) compared to negative and positive control, in words” value in assay [2] (50 μM in severe hemophilia A plasma, FIG. 3 and FIG. 4) is “increase in the generation of thrombin compared to the negative control”. Besides, in assay [2] (setting [4]), the “ETP (endogenous thrombin potential)” value came to 455 nM·min and the thrombin peak came out at 29.7 nM. Moreover, in assay [2] (setting [5]), the “ETP (endogenous thrombin potential)” value came out at 504 nM·min and the thrombin peak is on record as 39 nM. Also, in assay [2] (setting [6]), the “ETP (endogenous thrombin potential)” value came to 588 nM·min and the thrombin peak came to 55 nM. Also, in assay [3], the “coagulation restoration percentage (percentage of the positive control)” value is “approximately 14%”. For the same compound, in assay [3] (negative control OD 0.048, positive control OD 0.406), the “optical density (OD) at 405 nm, hydrolysis of PNAPEP-1025 by uninhibited FXa” value turned out to be 0.105. In addition, in assay [1], the “peak of generated thrombin compared to negative and positive control, in words” value is recorded as “much higher”; the “Amount of thrombin at the maximum of the peak, normalized to the thrombin peak obtained with adapalene” value turned out to be 1.

These data come from patent publication US20230346727A1, “COMPOUNDS FOR THE TREATMENT OF HEMOPHILIA” (UNIVERSITE GRENOBLE ALPES, priority 2020, published 2023).
